Experimental data taken from patent US20250120952A1, “17-Beta-Hydroxysteroid Dehydrogenase Type 13 Inhibitors And Methods Of Use Thereof” (ENANTA PHARMACEUTICALS, INC., priority 2023, published 2025).

Assays:
HSD17B13 = biological target: T1, HSD17B13 (Homo sapiens, UniProt Q7Z5P4); test: HSD17B13 enzymatic activity in H441 cells (estradiol conversion to estrone, rapid fire mass spectrometry); type: cell-based; conditions: H441 (high HSD17B13), inhibitor 0.3 uM, 1 uM, 3 uM, 24 hours; effect only in H441, not in A549 (low HSD17B13) (FIG. 10)
T1 construct: Human lung cancer cell lines with high (H441) or low (A549) expression of HSD17B13, as confirmed by western blot; host or cells: H441 human lung cancer cell line
T1 sequence (Q7Z5P4 20-300): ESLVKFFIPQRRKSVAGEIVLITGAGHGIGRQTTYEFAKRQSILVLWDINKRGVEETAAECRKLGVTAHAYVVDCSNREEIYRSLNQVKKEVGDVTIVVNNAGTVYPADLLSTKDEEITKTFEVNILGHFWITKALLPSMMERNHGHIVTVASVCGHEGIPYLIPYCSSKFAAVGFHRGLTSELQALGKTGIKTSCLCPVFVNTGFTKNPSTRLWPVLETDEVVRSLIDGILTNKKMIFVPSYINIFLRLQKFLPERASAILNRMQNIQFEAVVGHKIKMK
Experimental: (§1) Human lung cancer cell lines with high (H441) or low (A549) expression of HSD17B13, as confirmed by western blot, were acquired from ATCC and maintained according to manufacturer's instructions. Cells were seeded at a confluency of 2e5 cells/well (A549) or 4e5 cells/well (H441) in a 6-well format. Once cells were 70% confluent, media was removed and replenished with starvation media for 24 hours. Afterward starvation media was removed and replenished with treatment media for 24 hours. Compound 348 and Compound 812 were used as HSD17B13 inhibitors. For gene expression analysis, treatment media consisted of +/−TGFB1 (10 ng/mL) and +/−HSD17B13 inhibitor (3 uM). For HSD17B13 enzymatic activity, treatment media consisted of +/−d2-Estradiol (Cayman Chemicals) and +/−HSD17B13 inhibitor (0.3 uM, 1 uM, 3 uM); supernatants were collected to measure estradiol conversion to estrone by rapid fire mass spectrometry.

H441 cells = test: Collagen / COL1A1 mRNA in H441 cells; type: cell-based, human; conditions: H441 (high HSD17B13), +/-TGFB1 10 ng/mL, inhibitor 3 uM, 24 hours; effect only in H441, not in A549 (low HSD17B13) (FIG. 11)
Experimental: as §1

enzymatic activity (d2-estradiol conversion to estrone) (HSD17B13): decreased
SMILES: COc1cc(C(=O)O)ccc1NS(=O)(=O)c1csc(-c2ccc(C3CCC(C(F)(F)F)CC3)cc2)n1 (centres unmarked) [Compound 348]
COL1A1 (Collagen) (H441 cells): decreased
